The values below come from patent US5670508A, “2-amino-6-alkyl-5-(4-substituted-1-piperazinyl) pyrimidin-4-ones, the preparation and use thereof” (National Science Council, priority 1995, dated 1997).

Data set [1] deals with human lung cancer cell lines. The data set can be described thus: Cytotoxicity, NCI disease-oriented antitumor screening, lung cancer cell lines. It is filed as cell-based. To be noted: range of GI50's for the lung cancer cell lines, read-out: Cytotoxic activity (GI50), lung. From the text: (§1) Compounds were subjected to the disease-oriented antitumor screening on 60 cancer cell lines in the National Cancer Institute of the U.S.A. (Grever, M. R. et al., Seminars in Oncology 1992, 19, 622~638). Results of cytotoxicity are summarized in Table 1, GI50 values represent the concentrations corresponding to 50% of growth inhibition.

In data set [2] the test system is human colon cancer cell lines. The data set can be described thus: Cytotoxicity, NCI disease-oriented antitumor screening, colon cancer cell lines. It is filed as cell-based. The following applies: range of GI50's for the colon cancer cell lines, read-out: Cytotoxic activity (GI50), colon.
Excerpt: as §1

Data set [3] deals with human CNS tumor cell lines. The data set can be described thus: Cytotoxicity, NCI disease-oriented antitumor screening, CNS tumor cell lines. To be noted: for selective cytotoxicity on human CNS tumor cell lines: in words. The format is cell-based.
Excerpt: as §1

The test system of a further data set is CNS SNB75 cell line. As to the kind of experiment: Cytotoxicity, NCI disease-oriented antitumor screening, CNS SNB75 cell line. The format is cell-based. The following applies: Homo sapiens, SNB-75.
Excerpt: as §1

Data set [4] has as its system human ovarian cancer cell lines. The data set can be described thus: Cytotoxicity, NCI disease-oriented antitumor screening, ovarian cancer cell lines. It is filed as cell-based. The following applies: range of GI50's for the ovarian cancer cell lines, read-out: Cytotoxic activity (GI50), ovarian.
Excerpt: as §1

Data set [5] deals with human renal cancer cell lines. As to the kind of experiment: Cytotoxicity, NCI disease-oriented antitumor screening, renal cancer cell lines. It is filed as cell-based. The following applies: range of GI50's for the renal cancer cell lines, read-out: Cytotoxic activity (GI50), renal.
Excerpt: as §1

In data set [6] the test system is human prostate cancer cell lines. As to the kind of experiment: Cytotoxicity, NCI disease-oriented antitumor screening, prostate cancer cell lines. It is filed as cell-based. To be noted: range of GI50's for the prostate cancer cell lines, read-out: Cytotoxic activity (GI50), prostate.
Excerpt: as §1

For data set [7], the system named is human breast cancer cell lines. The data set can be described thus: Cytotoxicity, NCI disease-oriented antitumor screening, breast cancer cell lines. The format is cell-based. The following applies: range of GI50's for the breast cancer cell lines, read-out: Cytotoxic activity (GI50), breast.
Excerpt: as §1

Another data set relates to CNS U251 cell line. As to the kind of experiment: Cytotoxicity, NCI disease-oriented antitumor screening, CNS U251 cell line. It is filed as cell-based. The following applies: Homo sapiens, U-251, read-out: Cytotoxic activity (GI50), CNS.
Excerpt: as §1

In data set [8] the test system is glycinamide ribonucleotide transformylase (GAR-Tfase). To be noted: in words; Baldwin et al, 1991; cited from earlier work.
[9] abbreviates: CNS SNB75 cell line, read-out: Cytotoxic activity (GI50), CNS.
Where [10] appears, read: SNB75 CNS cell line, read-out: GI50.

Each structure is given as a SMILES string. Where two headings read alike, the source gives them in different places.

In the case of `Cc1nc(N)[nH]c(=O)c1N1CCN(c2ccc(C#N)cc2)CC1` [Compound 6, 4-[4-(2-Amino-6-methyl-4(3H)-oxopyrimidin-5-yl)piperazin-1-yl]benzonitrile], the 50% growth inhibitory concentration (GI50) (commonly the concentration giving 50% growth inhibition) was over 100 µM in data set [1]; over 100 µM in [2]; 40 nM with CNS SNB75 cell line (setting [9]); 93 µM in [4]; over 100 µM in data set [5]; over 100 µM in data set [6]. The GI50 in [7] was over 100 µM. Moreover, the “selective cytotoxicity on human CNS tumor cell lines” value in data set [3] is given as “selective cytotoxicity”.

Consider `Cc1nc(N)[nH]c(=O)c1N1CCN(c2ccc(C(=O)O)cc2)CC1` [Compound 7, 4-[4-(2-Amino-6-methyl-4(3H)-oxopyrimidin-5-yl)piperazin-1-yl]benzoic acid], for which the GI50 was over 100 µM in data set [1]; over 100 µM in [2]; over 100 µM in data set [3] (Homo sapiens, CNS cell lines, no single line specified, read-out: Cytotoxic activity (GI50), CNS); over 100 µM in data set [4]; 1.39 µM in data set [5]; over 100 µM in data set [6]. In data set [7], the GI50 is over 100 µM.

For the molecule `CCOC(=O)CCC(NC(=O)c1ccc(N2CCN(c3c(C)nc(N)[nH]c3=O)CC2)cc1)C(=O)OCC` (stereo not shown) [Compound 8, Diethyl N-[4-[4-(2-Amino-6-methyl-4(3H)-oxopyrimidin-5-yl)piperazin-1-yl]benzoyl]glutamic acid], the concentration for 50% growth inhibition (GI50) in [1] was over 100 µM; in data set [2], over 100 µM; in the data set on CNS SNB75 cell line (setting [9]), under 10 nM; in the data set with CNS SNB75 cell line (setting [10]), under 10 nM; in data set [4], over 100 µM; in data set [5] it was over 100 µM. Also, the GI50 in data set [6] and in data set [7] was over 100 µM in each case. Also, the “selective cytotoxicity on human CNS tumor cell lines” value in data set [3] is reported as “selective cytotoxicity”.

For `Cc1nc(N)[nH]c(=O)c1N1CCN(c2ccc(C(=O)NC(CCC(=O)O)C(=O)O)cc2)CC1` (stereo not shown) [Compound 9, N-[4-[4-(2-Amino-6-methyl-4-(3H)-oxopyrimidin-5-yl)piperazin-1-yl]benzoyl]glutamic acid], the concentration for 50% growth inhibition (GI50) in data set [1] is over 100 µM; in data set [2], over 100 µM; in the data set with CNS SNB75 cell line (setting [9]), under 10 nM; in the data set on CNS SNB75 cell line (setting [10]), under 10 nM; in data set [4], over 100 µM; in data set [5], over 100 µM. The concentration for 50% growth inhibition (GI50) in [6] and in data set [7] was over 100 µM in each case. For the same molecule, in data set [3], the “selective cytotoxicity on human CNS tumor cell lines” value was “selective cytotoxicity”.

For `Cc1nc(N)[nH]c(=O)c1N1CCN(c2ccc([N+](=O)[O-])cc2)CC1` [Compound 10, 2-Amino-6-methyl-5-[4-(4-nitrophenyl)piperazin-1-yl]pyrimidin-4(3H)-one], the GI50 in [1] was over 100 µM; in [2], over 100 µM; with CNS SNB75 cell line (setting [9]), under 10 nM; in the data set on CNS SNB75 cell line (setting [10]), under 10 nM; in data set [4], over 100 µM; in data set [5], over 100 µM. The GI50 in data set [6] and in data set [7] was over 100 µM in each case. Also, in data set [3], the “selective cytotoxicity on human CNS tumor cell lines” value is “selective cytotoxicity”.

Regarding `Cc1nc(N)[nH]c(=O)c1N1CCN(c2ccc(S(=O)(=O)N(Cc3ccccc3)Cc3ccccc3)cc2)CC1` [Compound 11], the 50% growth inhibitory concentration (GI50) in [1] was 4.8 to 79 µM; in [2] it was 55 µM; in the data set on CNS U251 cell line, 3.68 µM; in data set [4], 0.7 to 16 µM; in [5], 3.1 to 27 µM; in data set [6] it was 1.9 to 3.5 µM. In addition, the 50% growth inhibitory concentration (GI50) in data set [7] is 2.1 to 37 µM.

For `Cc1nc(N)[nH]c(=O)c1N1CCN(c2ccc(S(N)(=O)=O)cc2)CC1` [Compound 12, 4-[4-(2-Amino-6-methyl-4-(3H)-oxopyrimidin-5-yl)-piperazin-1-yl]benzenesulfonamide], the GI50 was over 100 µM in data set [1]; over 100 µM in data set [2]; 100 nM in the data set with CNS SNB75 cell line (setting [9]); over 100 µM in [4]; over 100 µM in data set [5]; over 100 µM in data set [6]. In addition, the concentration for 50% growth inhibition (GI50) in data set [7] was over 100 µM. The “selective cytotoxicity on human CNS tumor cell lines” value in data set [3] is recorded as “selective cytotoxicity”.

For the molecule `Nc1nc2c(c(=O)[nH]1)CC(CCc1ccc(C(=O)N[C@@H](CCC(=O)O)C(=O)O)cc1)CN2` (stereo partly shown) [DDATHF, 5,10-dideaza-5,6,7,8-tetrahydrofolic acid], the “inhibition of GAR-Tfase” value in data set [8] is recorded as “potent inhibitor”.
